This note sets out measurements from patent US9018214B2, “Bicyclic heterocycle compounds and their uses in therapy” (Astex Therapeutics Limited, priority 2011, dated 2015).

Structures can show the parent of a compound that is named as a salt. Where two headings read alike, the source gives them in different places.

For assay [1], the system named is EVSA-T (human breast carcinoma). The assay is described as follows: Anti-proliferative activity, Alamar Blue assay, EVSA-T. The class given is cell-based. The following applies: Homo sapiens.
Assay [2] deals with MDA-MB-231 (human breast carcinoma). The assay is described as follows: Anti-proliferative activity, Alamar Blue assay, MDA-MB-231. The class given is cell-based. As to conditions: read-out: EC50, inhibition of cell growth.
Assay [3] has as its target BIR3 domain of human XIAP (residues 252-350) (Homo sapiens (Human), UniProt P98170). The experiment in a line: XIAP in vitro competitive displacement binding assay (fluorescence polarization). As to conditions: for IC50: read-out: IC50 or PI Xiap: IC50; for inhibition at 0.04 µM: 1 h, read-out: IC50 or PI Xiap: PI.
The target in assay [4] is BIR3 domain of human cIAP-1 (residues 267-363) (Homo sapiens (Human), UniProt Q13490). The assay is described as follows: cIAP-1 in vitro competitive displacement binding assay (fluorescence polarization; Probe A AVPIK(5&6FAM)-amide or Probe B AbuRPFK(5&6FAM)-amide).
The mark [5] stands for this setting: EVSA-T cell line, 72 hours, Alamar Blue, read-out: EC50, inhibition of cell growth.
Where [6] appears, read: EVSA-T, 72 hours, Alamar Blue, read-out: EVSA-T prolif (EC50).
The mark [7] stands for this setting: MDA-MB-231 cell line, 72 hours, Alamar Blue.
Where [8] appears, read: Probe B AbuRPFK(5&6FAM)-amide, read-out: IC50 or PI cIAP1: IC50.
The mark [9] stands for this setting: EVSA-T, 72 h, read-out: EVSA-T prolif (EC50).
The mark [10] stands for this setting: read-out: IC50 or PI cIAP1: IC50.
Where [11] appears, read: EVSA-T, 72 h, read-out: EC50, inhibition of cell growth.

On to `COC[C@H]1CN[C@H](C)CN1CC(=O)N1CC(C)(C)c2cnc(Cc3cccc(F)c3)cc21` [Example 97, 1-{6-[(3-Fluorophenyl)methyl]-3,3-dimethyl-1H,2H,3H-pyrrolo[3,2-c]pyridin-1-yl}-2-[(2R,5R)-2-(methoxy-methyl)-5-methyl-piperazin-1-yl]ethan-1-one, hydrochloride salt], for which the EC50 was < 10 µM in assay [1] (setting [5]), 0.32 µM in assay [1] (setting [6]) and < 10 µM in assay [2] (setting [7]). Further, the figures for the IC50 in assay [3] and in assay [4] (setting [8]) were 0.34 µM and 0.017 µM, respectively.

Regarding `COC[C@H]1CN[C@H](C)CN1CC(=O)N1CC(C)(C)c2cnc(Oc3c(C)cccc3Cl)cc21` [Example 130, 1-[6-(2-Chloro-6-methylphenoxy)-3,3-dimethyl-1H,2H,3H-pyrrolo[3,2-c]pyridin-1-yl]-2-[(2R,5R)-2-(methoxymethyl)-5-methylpiperazin-1-yl]ethan-1-one hydrochloride], the EC50 in assay [1] (setting [5]) was < 10 µM; in assay [1] (setting [6]), 0.23 µM; in assay [2] (setting [7]) it was < 10 µM. The results for the IC50 in assay [3] and in assay [4] (setting [8]) were 0.2 µM and 0.044 µM, respectively.

For `C[C@@H]1CN(CC(=O)N2CC(C)(C)c3cnc(Oc4ccccc4Cl)cc32)[C@@H](C(=O)N(C)C)CN1` [Example 151, (2R,5R)-1-{2-[6-(2-Chlorophenoxy)-3,3-dimethyl-1H,2H,3H-pyrrolo[3,2-c]pyridin-1-yl]-2-oxoethyl}-N,N,5-trimethylpiperazine-2-carboxamide dihydrochloride], the EC50 was 0.59 µM in assay [1] (setting [9]) and < 10 µM in assay [2] (MDA-MB-231, 72 h). In addition, in assay [3], the inhibition at 0.04 µM was 48%. The IC50 in assay [4] (setting [10]) is 0.019 µM.

With `C=C(c1ccccc1)c1cc2c(cn1)C(C)(C)CN2C(=O)CN1C[C@@H](C)NC[C@@H]1COC` [Example 93, 1-[3,3-Dimethyl-6-(1-phenylethenyl)-1H,2H,3H-pyrrolo[3,2-c]pyridin-1-yl]-2-[(2R,5R)-2-(methoxymethyl)-5-methylpiperazin-1-yl]ethan-1-one, hydrochloride salt], the half-maximal effective concentration (EC50) in assay [1] (setting [6]) is 1 µM; in assay [2] (setting [7]), < 10 µM. For the same compound, the values for the IC50 in assay [3] and in assay [4] (setting [8]) were 0.49 µM and 0.059 µM, respectively.

`C[C@@H]1CN(CC(=O)N2CC(C)(C)c3cc(F)c(S(=O)(=O)c4ccccc4)cc32)CCN1` [Example 47, 1-(6-Benzenesulfonyl-5-fluoro-3,3-dimethyl-2,3-dihydro-indol-1-yl)-2-((R)-3-methyl-piperazin-1-yl)-ethanone dihydrochloride salt]: the EC50 in assay [1] (setting [11]) is < 10 µM; in assay [1] (setting [9]) it was 1.8 µM; in assay [2] (MDA-MB-231, 72 h) it was < 10 µM. Besides, the IC50 was 0.27 µM in assay [3], < 1 µM in assay [4] and 0.39 µM in assay [4] (setting [10]).

On to `COC[C@H]1CN[C@H](C)CN1CC(=O)N1CC(C)(C)c2cnc(C(=O)c3ccccc3)cc21` [Example 96, 1-{6-Benzoyl-3,3-dimethyl-1H,2H,3H-pyrrolo[3,2-c]pyridin-1-yl}-2-[(2R,5R)-2-(methoxymethyl)-5-methylpiperazin-1-yl]ethan-1-one, dihydrochloride salt], for which the EC50 was < 10 µM in assay [1] (setting [11]); 3 µM in assay [1] (setting [9]); < 10 µM in assay [2] (MDA-MB-231, 72 h). The values for the IC50 in assay [3] and in assay [4] (setting [10]) were 0.34 µM and 0.077 µM, respectively.

As to `COC[C@H]1CN[C@H](C)CN1CC(=O)N1CC(C)(C)c2ccc(S(=O)(=O)CC(C)C)cc21` [Example 64, 1-[3,3-Dimethyl-6-(2-methyl-propane-1-sulfonyl)-2,3-dihydro-indol-1-yl]-2-((2R,5R)-2-methoxymethyl-5-methyl-piperazin-1-yl)-ethanone dihydrochloride salt], the EC50 is 1 µM in assay [1] (setting [9]) and < 10 µM in assay [2] (MDA-MB-231, 72 h). Besides, the concentration for half-maximal inhibition (IC50) came to 0.27 µM in assay [3] and 0.14 µM in assay [4] (setting [10]).

For `COC[C@H]1CN[C@H](C)CN1CC(=O)N1CC(C)(C)c2cnc(-c3cc4ccccc4o3)cc21` [Example 150, 1-[6-(1-Benzofuran-2-yl)-3,3-dimethyl-1H,2H,3H-pyrrolo[3,2-c]pyridin-1-yl]-2-[(2R,5R)-2-(methoxymethyl)-5-methylpiperazin-1-yl]ethan-1-one dihydrochloride], the EC50 in assay [1] (setting [9]) was 0.73 µM; in assay [2] (MDA-MB-231, 72 h), < 10 µM. Further, the IC50 in assay [3] was 0.27 µM; in assay [4] (setting [10]) it was 0.014 µM.

As to `COC[C@H]1CN[C@H](C)CN1CC(=O)N1CC(C)(c2ccccn2)c2ccc(Cc3ccccc3)cc21` (stereo partly drawn) [Example 144, 1-[6-Benzyl-3-methyl-3-(pyridin-2-yl)-2,3-dihydro-1H-indol-1-yl]-2-[(2R,5R)-2-(methoxymethyl)-5-methylpiperazin-1-yl]ethan-1-one hydrochloride], the values for the EC50 in assay [1] (setting [6]) and in assay [2] (setting [7]) were 0.73 µM and < 10 µM, respectively. Moreover, the IC50 in assay [3] was 0.24 µM; in assay [4] (setting [8]) it was 0.012 µM.

Take `C[C@@H]1CN(CC(=O)N2CC(C)(C)c3cnc(Cc4ccccc4)cc32)[C@@H](C(F)F)CN1` [Example 122, 1-{6-Benzyl-3,3-dimethyl-1H,2H,3H-pyrrolo[3,2-c]pyridin-1-yl}-2-[(2R,5R)-2-(difluoromethyl)-5-methylpiperazin-1-yl]ethan-1-one hydrochloride]: the EC50 in assay [1] (setting [6]) was 0.29 µM; in assay [2] (setting [7]), < 10 µM. In addition, the IC50 in assay [3] came to 0.22 µM; in assay [4] (setting [8]) it was 0.029 µM.

Turning to `C[C@@H]1CN(CC(=O)N2CC(C)(C)c3cnc(Oc4ccccc4Cl)cc32)[C@@H](CN2CCCC2=O)CN1` [Example 182, 1-{[(2R,5R)-1-{2-[6-(2-Chlorophenoxy)-3,3-dimethyl-1H,2H,3H-pyrrolo[3,2-c]pyridin-1-yl]-2-oxoethyl}-5-methylpiperazin-2-yl]methyl}pyrrolidin-2-one hydrochloride], the EC50 is < 10 µM in assay [1] (setting [5]), 0.067 µM in assay [1] (setting [6]) and < 10 µM in assay [2] (setting [7]). Also, the inhibition at 0.04 µM in assay [3] (@ 0.04 μM) turned out to be 73%. Besides, the inhibition at […] in assay [4] (3 h, Probe B, @ 0.012 μM, read-out: IC50 or PI cIAP1: PI) is 62%.

For `COC[C@H]1CN[C@H](C)CN1CC(=O)N1CC(C)(C)c2cnc(Cc3ccc(Cl)cc3)cc21` [Example 82, 1-[6-(4-Chloro-benzyl)-3,3-dimethyl-2,3-dihydro-pyrrolo[3,2-c]pyridin-1-yl]-2-((2R,5R)-2-methoxymethyl-5-methyl-piperazin-1-yl)-ethanone], the EC50 was < 10 µM in assay [1] (setting [5]), 0.034 µM in assay [1] (setting [6]) and < 10 µM in assay [2] (setting [7]). Besides, the IC50 in assay [3] is 0.22 µM. Besides, in assay [4] (3 h, Probe B, @ 0.01 μM, read-out: IC50 or PI cIAP1: PI), the inhibition at 0.01 µM stood at 86%.

Turning to `COC[C@H]1CN[C@H](C)CN1CC(=O)N1CC(C)(C)c2cnc(Oc3ccccc3C)cc21` [Example 83, 1-(3,3-Dimethyl-6-o-tolyloxy-2,3-dihydro-pyrrolo[3,2-c]pyridin-1-yl)-2-((2R,5R)-2-methoxymethyl-5-methyl-piperazin-1-yl)-ethanone hydrochloride salt], the results for the concentration giving a half-maximal response (EC50) in assay [1] (setting [5]), in assay [1] (setting [6]) and in assay [2] (setting [7]) were < 10 µM, 2 µM and < 10 µM, respectively. The IC50 is 0.35 µM in assay [3], < 1 µM in assay [4] and 0.11 µM in assay [4] (setting [8]).
